# Patent US20140288188A1, “Process for Stabilizing Bacterial Content of Aqueous Ground Natural Calcium Carbonate and/or Precipitated Calcium Carbonate and/or Dolomite and/or Surface-Reacted Calcium Carbonate-Comprising Mineral Preparations” (priority 2011, published 2014)
# Read-outs that look alike come from different tables or passages of the source.
# Experiments:
# [1] = test system: rGDA/IT bacteria culture (GDA/CIT/MIT-resistant); assay type: cell-based, Pseudomonas; settings: no BM1, GNCCS, one inoculation
# Description: (§1) All quoted bacterial counts (Total Viable Count (TVC) values are in cfu/ml) in the Tables herebelow are determined after 48 hours following plate-out and in accordance with the counting method described in “Bestimmung von aeroben mesophilen Keimen”, Schweizerisches Lebensmittelbuch, chapter 56, section 7.01, edition of 1985, revised version of 1988.
# BM1 and ethylene diamine (hereafter “EDA”) were introduced into 50 g samples of each of the slurries indicated in Table 1 in the listed amounts (quoted in ppm based on the weight of the aqueous phase in the slurry). The samples were then stored at 30° C. for 72 hours. References were prepared according to the same protocol but in absence of EDA and in absence of EDA and BM1.
# The slurry samples were then inoculated with 1 ml of a mixture of rGDA/IT bacteria culture. Each of the samples was incubated at 30° C. for 24 hours. Thereafter, a 1:10 dilution in phosphate buffered saline (PBS) was plated on plate count agar (PCA). These plates were incubated at 30° C. and analysed after 48 hours.
# The biocide-resistant calcium carbonate slurry culture rGDA/IT is GDA/CIT/MIT-resistant and was obtained from product storage tanks located at white mineral dispersion (WMD) manufacturing plants that used the related biocide to preserve the products. […]
# BM1 and a diamine selected from 1,3-bis(aminomethyl)cyclohexane (hereinafter “AMC”), 1,3-bis(aminomethyl)benzene (hereinafter “AMB”), 1,7-diaminoheptane (hereinafter “DAH”), and 1,8-diamionoocatane (hereinafter “DAO”) were introduced into 50 g samples of each of the slurries indicated in Table 4 in the listed amounts (quoted in ppm based on the weight of the aqueous phase in the slurry). The samples were then stored at 30° C. for 72 hours. References were prepared according to the same protocol but in absence of the respective diamine used and in the absence of the respective diamine and BM1. […]
# [2] = test system: rOPP bacteria culture (OPP-resistant); experiment: Biocidal activity in ground natural calcium carbonate slurry (GNCCS), Total Viable Count after inoculation with rOPP culture; assay type: cell-based, Pseudomonas putida and Pseudomonas stutzeri; settings: one inoculation
# Description: as §1
# OPP, in the form of an aqueous solution having a concentration of 45%, and one of AMC, AMB, DAH, and DAO were introduced into 50 g samples of each of the slurries indicated in Table 6 in the listed amounts (quoted in ppm active content based on the weight of the aqueous phase in the slurry). References were prepared according to the same protocol but in absence of any one of AMC, AMB, DAH, and DAO. A reference was prepared according to the same protocol but in absence of AMC, AMB, DAH, and DAO and in absence of any biocide.
# The slurry samples were then inoculated with 1 ml of a mixture of Pseudomonas species containing predominantly Pseudomonas putida and Pseudomonas stutzeri that are resistant to OPP. Each of the samples was incubated at 30° C. for 72 hours. Thereafter, a 1:10 dilution in phosphate buffered saline (PBS) was plated on plate count agar (PCA). These plates were incubated at 30° C. and analysed after […]. […]
SMILES,TVC ([1]; diamine 750 ppm alone),also measured
"NCc1cccc(CN)c1 [AMB, 1,3-bis(aminomethyl)benzene]",1 × 10^6 cfu/ml,–
"NCC1CCCC(CN)C1 (stereo not shown) [AMC, 1,3-bis(aminomethyl)cyclohexane]",1 × 10^6 cfu/ml,–
"NCCCCCCCN [DAH, 1,7-diaminoheptane]",1 × 10^6 cfu/ml,–
"NCCCCCCCCN [DAO, 1,8-diamionoocatane]",1 × 10^6 cfu/ml,"TVC ([2]; diamine 750 ppm alone, no OPP): 1 × 10^6 cfu/ml"
"NCCN [EDA, ethylene diamine]",–,TVC ([1]; EDA 1050 ppm on aqueous phase alone): 1 × 10^6 cfu/ml
"Oc1ccccc1-c1ccccc1 [OPP, orthophenylphenol, reference compound]",–,TVC ([2]; OPP 250 ppm alone): 1 × 10^6 cfu/ml
